Results taken from patent US10509041B2, “Glucose derivative, and cell imaging method and imaging agent using said derivative” (HIROSAKI UNIVERSITY, priority 2014, dated 2019).
Where “and” joins values, the source holds several entries; their conditions need not be identical. Identical values can stand only once.

System: mouse insulinoma cells (MIN6)
Assay: Increase in fluorescence intensity (uptake) after administration of fluorescent glucose derivative to MIN6 cells, influence of cytochalasin B (CB) or phloretin (PHT), fluorescence microplate reader
Type: cell-based
Settings: CDG 100 μM, 37° C. 5 minutes; CB 10 μM; MIN6 culture day 13; average, two independent experiments
Description: Increase in fluorescence intensity caused by the administration of CDG, and the influence of a glucose transporter (GLUT) inhibitor CB thereon were confirmed by targeting MIN6 cells.
A 96-well clear-bottom plate having wells of 8 rows (A to H) and 12 columns (1 to 12) (μClear-PLATE, Greiner Bio-One, BLACK) was used in measurement. A culture solution containing MIN6 cells suspended at a density of 60×10^4 cells/mL was added dropwise at 10 μL/well to the central portion of the well, and then, the plate was left standing for 40 minutes in an incubator for fixation. The cells were cultured by the addition of a culture solution at 200 μL/well (6000 cells/well). For layout, the cells were seeded to wells B to H on the third column and wells A to G on the fifth column. Medium replacement was performed by replacing half the amount with a fresh one once every two days at 0 to 4 DIV (days in vitro) and every day at 5 DIV or later. […]
CDG and 2-NBDG were each independently administered to the wells on the third and fifth columns using an 8-channel pipette such that these derivatives were alternately placed on the same plate. Before the administration, the autofluorescence of each well was measured in advance using a fluorescence microplate reader (Flex Station, Molecular Devices, LLC). […] The measurement was conducted at Bottom Read, Averaging 3, and Photomultiplier sensitivity high. […]

O=c1ccc2ccc(NC3C(O)OC(CO)[C@@H](O)[C@@H]3O)cc2o1 (stereo partly drawn) [CDG, 2-deoxy-2-(2-oxo-2H-chromen-7-yl)amino-D-glucose]
fluorescence intensity in the presence of CB relative to the absence of CB: 47.3% and 42.9%
